Measured values published in PubChem BioAssay (NCI).
Values joined by “and” are separate entries in the source; they are usually repeats but may differ in a detail not shown here. Equal values may be shown once.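 In this assay, cells in 96-well plates receive the compound at five concentrations for 48 hours. Endpoints are linearly interpolated between the surrounding concentrations. TGI marks complete inhibition of growth.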

Columns and labels:
Test in all cases: DTP human tumour cell line panel, 48 h
OVCAR-5 ovarian = system: OVCAR-5 ovarian
OVCAR-8 ovarian = system: OVCAR-8 ovarian
UACC-62 melanoma = system: UACC-62 melanoma
OVCAR-4 ovarian = system: OVCAR-4 ovarian
NCI/ADR-RES ovarian = system: NCI/ADR-RES ovarian
KM12 colon = system: KM12 colon
NCI-H226 lung = system: NCI-H226 lung
MCF7 breast = system: MCF7 breast
BT-549 breast = system: BT-549 breast

| Structure (SMILES) | TGI (OVCAR-5 ovarian) | TGI (OVCAR-8 ovarian) | TGI (UACC-62 melanoma) | TGI (OVCAR-4 ovarian) | TGI (NCI/ADR-RES ovarian) | TGI (KM12 colon) | TGI (NCI-H226 lung) | TGI (MCF7 breast) | TGI (BT-549 breast) |
| --- | --- | --- | --- | --- | --- | --- | --- | --- | --- |
| C=CC1(c2ccc(OC)cc2)OCCCO1 | > 100 µM | > 100 µM | > 100 µM | > 100 µM | > 100 µM | > 100 µM | > 100 µM | > 100 µM | – |
| O=P1(c2ccccc2)C2=CCC=CC2C(c2ccccc2)N1Cc1ccccc1 (stereo not given) | > 100 µM | 38.1 µM | 21.7 µM | – | 32.2 µM | 28.3 µM | – | 25.6 µM | 31.6 µM |
| COC(=O)[C@H](CCSC)NC(=O)c1ccc(CNC(=O)/C(C)=C/c2ccccc2)cc1 | > 100 µM | 51.4 µM | > 100 µM | > 100 µM | 68.5 µM | > 100 µM | > 100 µM | > 100 µM | 60.9 µM |
| CC(/C=N/NC1=NCCCN1)=N\NC1=NCCCN1 | > 100 µM | > 100 µM | > 100 µM | > 100 µM | > 100 µM | > 100 µM | > 100 µM | > 100 µM | > 100 µM |
| CCC1(O)CC(OC2CC(N(C)C)C(OC3CC(O)C(OC4CCC(=O)C(C)O4)C(C)O3)C(C)O2)c2c(O)c3c(c(O)c2C1C(=O)OC)C(=O)c1cccc(O)c1C3=O (stereo not given) | 0.0735 µM and 0.722 µM | 0.9 µM and 0.187 µM | 0.0235 µM | 0.21 µM | – | 1.28 µM | – | 1.02 µM | – |
| CCN(CC)CCC(=O)c1ccc(Oc2ccc(F)cc2)cc1 | 35 µM | 57.6 µM | 31.9 µM | > 100 µM | 83.4 µM | 36.6 µM | > 100 µM | 38.7 µM | 32.8 µM |
| COc1ccc(C[C@@H]2OC3(C=CC(=O)C=C3)O[C@H]2Cc2ccc(OC)cc2)cc1 | 2.05 µM | 0.645 µM | 3.7 µM | 2.14 µM | 2.64 µM | 5.04 µM | 0.652 µM | 5.68 µM | 0.505 µM |
| COc1ccccc1NCC(=O)Nn1c(C)nc2ccc(S(=O)(=O)Nc3ccccc3OC)cc2c1=O | > 100 µM | > 100 µM | > 100 µM | > 100 µM | > 100 µM | > 100 µM | > 100 µM | > 100 µM | > 100 µM |
| CN1C(=O)N(C)C2(CCN(CCCCCCF)CC2)C1=O | > 100 µM | > 100 µM | > 100 µM | – | > 100 µM | > 100 µM | > 100 µM | > 100 µM | > 100 µM |
| Cc1nc2c(=O)[nH]c3ccc(Cl)cc3c2o1 | > 100 µM | > 100 µM | > 100 µM | > 100 µM | > 100 µM | > 100 µM | > 100 µM | > 100 µM | > 100 µM |
| C=CC(Br)(CBr)CCC(Br)C(C)C (stereo not given) | 29.6 µM | 8.58 µM | 12.5 µM | 17.9 µM | 33.8 µM | 4.83 µM | 30.8 µM | 3.75 µM | 11.5 µM |
| C#CCOC(=O)C(N)CCSC (stereo not given) | > 100 µM | > 100 µM | > 100 µM | – | > 100 µM | > 100 µM | > 100 µM | > 100 µM | > 100 µM |
